Results as given in ChEMBL document CHEMBL5649166, “RIP3 induces apoptosis independent of pronecrotic kinase activity” (Mol Cell, 2014).

How the values were obtained:
MEF = test: Induction of apoptosis in RIP3-/- MEF cells transfected with human RIP3mutRHIM incubated for 18 hrs by Cell Titer-Glo luminescent cell viability assay; type: toxicity, cell-based; conditions: mouse
[1] = target: Mitogen-activated protein kinase kinase kinase 10 (Homo sapiens) (UniProt Q02779); test: Residual activity of human MLK2/MAP3K10 using myelin basic protein as substrate at 1 uM in presence of 32P-ATP by Hotspot assay relative to control
Chain of Mitogen-activated protein kinase kinase kinase 10 (Homo sapiens) (Q02779 whole entry, looked up): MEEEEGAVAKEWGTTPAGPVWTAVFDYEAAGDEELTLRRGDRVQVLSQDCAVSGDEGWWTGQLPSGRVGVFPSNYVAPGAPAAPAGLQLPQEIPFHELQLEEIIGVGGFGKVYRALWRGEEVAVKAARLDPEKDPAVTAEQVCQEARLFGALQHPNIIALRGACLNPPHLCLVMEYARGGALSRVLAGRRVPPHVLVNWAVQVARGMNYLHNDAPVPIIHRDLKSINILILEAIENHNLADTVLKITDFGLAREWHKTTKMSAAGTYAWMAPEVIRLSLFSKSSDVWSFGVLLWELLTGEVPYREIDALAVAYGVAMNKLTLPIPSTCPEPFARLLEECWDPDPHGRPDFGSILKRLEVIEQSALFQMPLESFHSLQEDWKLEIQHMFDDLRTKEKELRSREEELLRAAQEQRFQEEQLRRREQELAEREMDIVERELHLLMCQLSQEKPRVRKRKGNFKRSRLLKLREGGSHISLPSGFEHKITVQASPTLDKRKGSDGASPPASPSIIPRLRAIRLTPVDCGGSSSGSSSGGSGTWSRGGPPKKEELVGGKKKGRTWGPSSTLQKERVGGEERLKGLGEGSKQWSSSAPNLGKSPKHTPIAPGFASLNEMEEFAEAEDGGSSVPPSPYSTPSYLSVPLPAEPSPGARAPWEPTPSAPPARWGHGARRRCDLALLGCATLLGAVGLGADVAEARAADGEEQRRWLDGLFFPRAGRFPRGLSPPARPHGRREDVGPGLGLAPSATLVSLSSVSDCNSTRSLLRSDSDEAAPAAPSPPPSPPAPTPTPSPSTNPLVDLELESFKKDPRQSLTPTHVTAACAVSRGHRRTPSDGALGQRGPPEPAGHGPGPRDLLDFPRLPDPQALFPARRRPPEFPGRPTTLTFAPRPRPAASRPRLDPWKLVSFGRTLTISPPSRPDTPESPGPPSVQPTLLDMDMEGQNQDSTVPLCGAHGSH

[2] = target: Serine/threonine-protein kinase PLK1 (Homo sapiens) (UniProt P53350); test: Inhibition of human PLK1 using casein as substrate at 1 uM in presence of 32P-ATP by Hotspot assay relative to control; values are per cent of control
Chain of Serine/threonine-protein kinase PLK1 (Homo sapiens) (P53350 whole entry): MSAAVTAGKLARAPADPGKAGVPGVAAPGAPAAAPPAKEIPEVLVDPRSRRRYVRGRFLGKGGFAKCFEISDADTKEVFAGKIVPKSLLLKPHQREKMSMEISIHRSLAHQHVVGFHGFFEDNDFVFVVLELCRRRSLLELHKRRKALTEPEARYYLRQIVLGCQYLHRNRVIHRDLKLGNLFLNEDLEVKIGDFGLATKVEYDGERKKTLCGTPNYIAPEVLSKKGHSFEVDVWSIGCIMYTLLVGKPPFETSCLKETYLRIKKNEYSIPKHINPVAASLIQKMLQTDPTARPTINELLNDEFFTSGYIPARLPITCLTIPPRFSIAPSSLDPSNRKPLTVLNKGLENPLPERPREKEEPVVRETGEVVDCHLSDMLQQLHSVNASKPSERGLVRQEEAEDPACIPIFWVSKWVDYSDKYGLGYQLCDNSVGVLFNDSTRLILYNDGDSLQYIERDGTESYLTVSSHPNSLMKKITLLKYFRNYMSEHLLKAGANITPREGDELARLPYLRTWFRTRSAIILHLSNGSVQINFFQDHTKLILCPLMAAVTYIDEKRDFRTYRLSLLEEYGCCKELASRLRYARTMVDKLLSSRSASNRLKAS

[3] = target: Cyclin-dependent kinase 2/cyclin E1 (Homo sapiens) (UniProt P24864+P24941); test: Inhibition of human CDK2/cyclin E using RB Protein as substrate at 1 uM in presence of 32P-ATP by Hotspot assay relative to control; values are per cent of control
[4] = target: Ribosomal protein S6 kinase beta-1 (Homo sapiens) (UniProt P23443); test: Inhibition of human p70S6K/RPS6KB1 using KKRNRTLTK as substrate at 1 uM in presence of 32P-ATP by Hotspot assay relative to control; values are per cent of control
Chain of Ribosomal protein S6 kinase beta-1 (Homo sapiens) (P23443 whole entry, looked up): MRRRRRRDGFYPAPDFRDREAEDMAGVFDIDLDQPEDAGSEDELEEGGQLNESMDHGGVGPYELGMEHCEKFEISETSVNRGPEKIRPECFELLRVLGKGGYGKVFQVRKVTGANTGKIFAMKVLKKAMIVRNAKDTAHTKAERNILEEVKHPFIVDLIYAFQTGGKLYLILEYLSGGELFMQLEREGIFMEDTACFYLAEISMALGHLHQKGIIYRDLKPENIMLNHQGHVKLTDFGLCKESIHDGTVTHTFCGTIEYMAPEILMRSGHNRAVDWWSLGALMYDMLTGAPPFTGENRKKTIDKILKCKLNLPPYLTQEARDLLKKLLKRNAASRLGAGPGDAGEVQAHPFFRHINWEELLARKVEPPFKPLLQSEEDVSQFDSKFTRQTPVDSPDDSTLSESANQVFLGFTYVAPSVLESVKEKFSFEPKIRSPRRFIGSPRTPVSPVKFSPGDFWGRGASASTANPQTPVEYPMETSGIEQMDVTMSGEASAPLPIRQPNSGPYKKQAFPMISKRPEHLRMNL

[5] = target: Ephrin type-A receptor 2 (Homo sapiens) (UniProt P29317); test: Inhibition of human EPHA2 using poly[Glu:Tyr] (4:1) as substrate at 1 uM in presence of 32P-ATP by Hotspot assay relative to control; values are per cent of control
Chain of Ephrin type-A receptor 2 (Homo sapiens) (P29317 whole entry): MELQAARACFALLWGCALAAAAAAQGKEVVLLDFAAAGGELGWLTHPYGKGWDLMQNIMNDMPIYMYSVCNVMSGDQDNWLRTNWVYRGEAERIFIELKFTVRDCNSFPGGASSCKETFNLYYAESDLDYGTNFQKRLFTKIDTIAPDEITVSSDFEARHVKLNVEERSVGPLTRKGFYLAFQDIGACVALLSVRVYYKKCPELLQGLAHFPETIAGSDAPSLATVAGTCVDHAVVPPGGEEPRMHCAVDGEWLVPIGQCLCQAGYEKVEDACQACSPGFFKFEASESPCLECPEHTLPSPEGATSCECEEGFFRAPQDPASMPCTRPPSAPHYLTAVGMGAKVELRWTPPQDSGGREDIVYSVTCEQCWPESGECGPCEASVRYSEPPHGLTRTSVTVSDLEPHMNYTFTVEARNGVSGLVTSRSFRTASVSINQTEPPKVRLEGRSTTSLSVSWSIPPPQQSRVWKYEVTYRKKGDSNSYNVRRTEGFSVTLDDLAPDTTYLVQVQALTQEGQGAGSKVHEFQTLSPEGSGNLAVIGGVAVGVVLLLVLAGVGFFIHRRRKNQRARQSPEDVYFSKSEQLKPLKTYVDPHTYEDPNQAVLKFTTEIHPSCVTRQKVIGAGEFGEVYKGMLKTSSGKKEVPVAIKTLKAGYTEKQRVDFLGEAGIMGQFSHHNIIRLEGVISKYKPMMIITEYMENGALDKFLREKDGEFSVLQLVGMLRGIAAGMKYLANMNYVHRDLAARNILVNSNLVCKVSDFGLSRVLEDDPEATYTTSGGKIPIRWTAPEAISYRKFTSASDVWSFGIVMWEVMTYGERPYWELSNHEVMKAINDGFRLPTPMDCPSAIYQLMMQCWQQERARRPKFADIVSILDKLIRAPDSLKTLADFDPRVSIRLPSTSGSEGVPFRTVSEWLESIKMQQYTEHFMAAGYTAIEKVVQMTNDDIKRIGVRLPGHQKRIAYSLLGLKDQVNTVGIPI

[6] = target: T1, Mitogen-activated protein kinase kinase kinase 2 (Homo sapiens) (UniProt Q9Y2U5); test: Inhibition of human MEKK2 using myelin basic protein as substrate at 1 uM in presence of 32P-ATP by Hotspot assay relative to control; values are per cent of control
T1 sequence (whole entry): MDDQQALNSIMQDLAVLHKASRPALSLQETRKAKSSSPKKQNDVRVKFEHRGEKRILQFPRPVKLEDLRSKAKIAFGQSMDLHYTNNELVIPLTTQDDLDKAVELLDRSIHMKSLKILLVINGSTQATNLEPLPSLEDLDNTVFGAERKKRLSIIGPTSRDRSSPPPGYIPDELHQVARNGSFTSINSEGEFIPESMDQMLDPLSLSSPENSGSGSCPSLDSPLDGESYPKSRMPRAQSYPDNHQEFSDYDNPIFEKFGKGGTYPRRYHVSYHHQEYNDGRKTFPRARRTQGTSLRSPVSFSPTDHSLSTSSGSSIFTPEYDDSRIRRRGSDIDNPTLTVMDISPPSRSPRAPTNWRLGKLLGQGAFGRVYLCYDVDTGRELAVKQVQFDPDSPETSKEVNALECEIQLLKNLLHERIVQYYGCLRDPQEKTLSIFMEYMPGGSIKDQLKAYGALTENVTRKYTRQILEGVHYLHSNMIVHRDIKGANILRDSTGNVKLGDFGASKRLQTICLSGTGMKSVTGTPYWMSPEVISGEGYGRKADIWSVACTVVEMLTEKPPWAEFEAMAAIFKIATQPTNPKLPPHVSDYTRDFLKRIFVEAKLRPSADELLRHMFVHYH

[7] = target: T2, Serine/threonine-protein kinase Sgk3 (Homo sapiens) (UniProt Q96BR1); test: Inhibition of human SGK3/SGKL using KGSGSGRPRTSSFAEG as substrate at 1 uM in presence of 32P-ATP by Hotspot assay relative to control; values are per cent of control
T2 sequence (whole entry): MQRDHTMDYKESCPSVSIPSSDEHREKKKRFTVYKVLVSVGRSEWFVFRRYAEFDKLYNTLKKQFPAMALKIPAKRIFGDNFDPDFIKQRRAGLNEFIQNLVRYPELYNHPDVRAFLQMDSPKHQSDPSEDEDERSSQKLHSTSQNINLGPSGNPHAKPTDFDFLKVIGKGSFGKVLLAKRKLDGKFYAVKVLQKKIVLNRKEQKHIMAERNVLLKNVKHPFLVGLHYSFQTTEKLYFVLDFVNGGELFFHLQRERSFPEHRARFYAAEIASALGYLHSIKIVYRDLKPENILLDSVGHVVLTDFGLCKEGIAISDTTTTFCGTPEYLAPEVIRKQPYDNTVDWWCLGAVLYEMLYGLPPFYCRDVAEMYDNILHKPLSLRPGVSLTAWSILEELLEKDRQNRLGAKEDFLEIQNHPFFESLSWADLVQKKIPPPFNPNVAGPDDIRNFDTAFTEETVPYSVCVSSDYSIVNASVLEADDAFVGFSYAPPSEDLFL

SMILES	Activity (MEF)	residual activity [1]	residual activity [2]	residual activity [3]	residual activity [4]	residual activity [5]	residual activity [6]	residual activity [7]
CC(C)S(=O)(=O)c1ccc2nccc(Nc3ccc4scnc4c3)c2c1	Non-Toxic	84.5%	95.4%	87.7%	108%	80.1%	92.2%	106%
Cc1cc(-c2cnc(N)c3c(-c4ccc5scnc5c4)csc23)n(C)n1	Non-Toxic	97.5%	98.6%	94.8%	93.6%	74.3%	106%	97.9%
CNC(=O)c1ccc2c(c1)ncn2-c1ccc(CC(=O)OC(C)(C)C)cc1	Non-Toxic	90.9%	103%	104%	99.1%	97.3%	100%	96.7%
